This is an account of results in patent US20120264735A1 (priority 2009, published 2012).

Bounds are passed on as bounds.

T1 sequence (P08581 25-1390): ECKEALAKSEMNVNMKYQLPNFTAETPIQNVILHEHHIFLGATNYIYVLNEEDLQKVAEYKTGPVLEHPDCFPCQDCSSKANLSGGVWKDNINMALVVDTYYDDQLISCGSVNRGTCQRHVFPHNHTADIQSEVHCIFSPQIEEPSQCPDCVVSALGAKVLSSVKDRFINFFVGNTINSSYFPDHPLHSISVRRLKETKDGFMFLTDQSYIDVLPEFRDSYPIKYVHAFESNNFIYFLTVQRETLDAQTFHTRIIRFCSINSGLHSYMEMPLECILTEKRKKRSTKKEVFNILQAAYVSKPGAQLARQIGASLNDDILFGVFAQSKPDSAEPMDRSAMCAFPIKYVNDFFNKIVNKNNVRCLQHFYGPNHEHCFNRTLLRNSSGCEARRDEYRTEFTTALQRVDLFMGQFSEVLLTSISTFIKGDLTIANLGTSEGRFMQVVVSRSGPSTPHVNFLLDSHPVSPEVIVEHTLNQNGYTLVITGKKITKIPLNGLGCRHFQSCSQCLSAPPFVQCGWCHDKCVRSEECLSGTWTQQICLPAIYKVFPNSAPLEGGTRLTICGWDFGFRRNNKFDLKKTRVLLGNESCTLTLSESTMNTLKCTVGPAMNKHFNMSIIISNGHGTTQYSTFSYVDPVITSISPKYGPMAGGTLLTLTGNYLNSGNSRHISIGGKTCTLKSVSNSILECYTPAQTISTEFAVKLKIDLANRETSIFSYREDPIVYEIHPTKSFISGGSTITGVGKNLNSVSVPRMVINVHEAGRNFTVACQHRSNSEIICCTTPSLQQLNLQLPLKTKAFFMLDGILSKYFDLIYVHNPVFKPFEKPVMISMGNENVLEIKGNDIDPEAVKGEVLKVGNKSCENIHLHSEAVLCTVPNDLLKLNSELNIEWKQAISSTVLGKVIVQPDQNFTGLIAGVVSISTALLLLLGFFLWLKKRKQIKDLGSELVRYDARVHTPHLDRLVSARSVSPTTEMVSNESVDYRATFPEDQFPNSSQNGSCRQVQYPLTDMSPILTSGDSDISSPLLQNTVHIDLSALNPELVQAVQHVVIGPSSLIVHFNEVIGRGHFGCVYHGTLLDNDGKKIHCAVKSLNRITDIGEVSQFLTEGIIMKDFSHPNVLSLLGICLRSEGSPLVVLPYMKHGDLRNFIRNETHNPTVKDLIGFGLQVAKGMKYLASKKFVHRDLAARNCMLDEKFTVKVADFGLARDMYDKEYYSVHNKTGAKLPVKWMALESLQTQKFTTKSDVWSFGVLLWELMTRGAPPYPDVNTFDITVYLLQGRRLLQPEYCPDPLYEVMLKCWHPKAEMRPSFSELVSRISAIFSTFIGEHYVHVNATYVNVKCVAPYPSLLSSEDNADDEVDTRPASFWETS

The assay has as its target T1, c-Met kinase (recombinant c-Met) (Homo sapiens, UniProt P08581).
T1 construct: 0.27 nM recombinant c-Met
The assay can be described thus: In vitro kinase assay I (homogeneous time-resolved fluorescence tyrosine kinase assay). It counts as biochemical. In outline:
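Biotinylated peptide (0.5 μM) phosphorylated by 0.2 nM recombinant c-Met with 50 μM MgATP, 60 min at room temperature, pH 7.4, 5% DMSO. EDTA stop; HTRF read with Eu-anti-phosphotyrosine antibody and streptavidin-APC. IC50 from 4-parameter logistic fit.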
With `Cn1cc(-n2ccc(=O)c(Cc3cccc(-c4ncn(CCS(C)(=O)=O)n4)c3)n2)cn1` [Example 714, 1-(1-methyl-1H-pyrazol-4-yl)-3-(3-{1-[2-(methylsulfonyl)ethyl]-1H-1,2,4-triazol-3-yl}benzyl)pyridazin-4(1H)-one], the IC50 (as a rule, the concentration at which inhibition is half-maximal) was 100 to 1000 nM.

Consider `Cc1ccc2c(Cc3nn(-c4cnn(C)c4)ccc3=O)cccc2n1` [Example 44, 1-(1-methyl-1H-pyrazol-4-yl)-3-[(2-methylquinolin-5-yl)methyl]pyridazin-4(1H)-one], for which the IC50 lay within 1000 to 3000 nM.

Regarding `COCCn1cc(-n2ccc(=O)c(Cc3cccc(NC(=O)OCC(C)C)c3)n2)cn1` [Example 108, 2-methylpropyl [3-({1-[1-(2-methoxyethyl)-1H-pyrazol-4-yl]-4-oxo-1,4-dihydropyridazin-3-yl}methyl)phenyl]carbamate], the IC50 was less than 100 nM.

Consider `CCOc1cnc(-c2cc(F)cc(Cc3nn(-c4cnn(C)c4)ccc3=O)c2)nc1` [Example 120, 3-[3-(5-ethoxypyrimidin-2-yl)-5-fluorobenzyl]-1-(1-methyl-1H-pyrazol-4-yl)pyridazin-4(1H)-one], for which the IC50 was less than 100 nM.

As to `Cn1cc(-n2ccc(=O)c(Cc3cccc(-c4ncc(NCC5CCOC5)cn4)c3)n2)cn1` (racemic) [Example 455, rac-1-(1-methyl-1H-pyrazol-4-yl)-3-(3-{5-[(tetrahydro-furan-3-ylmethyl)amino]pyrimidin-2-yl}benzyl)pyridazin-4(1H)-one], the concentration for half-maximal inhibition (IC50) is less than 100 nM.

For `CCCCn1cnc(-c2cccc(Cc3nn(-c4cnn(C)c4)ccc3=O)c2)n1` [Example 76, 3-[3-(1-butyl-1H-1,2,4-triazol-3-yl)benzyl]-1-(1-methyl-1H-pyrazol-4-yl)pyridazin-4(1H)-one], the IC50 is less than 100 nM.

Turning to `CCCn1cnc(-c2cccc(Cc3nn(-c4cnn(C)c4)ccc3=O)c2)n1` [Example 57, 1-(1-methyl-1H-pyrazol-4-yl)-3-[3-(1-propyl-1H-1,2,4-traizol-3-yl)benzyl]pyridazin-4(1H)-one], the IC50 is less than 100 nM.

Consider `CCOc1cnc(-c2cccc(Cc3nn(-c4ccc(C(=O)NCCO)c(F)c4)ccc3=O)c2)nc1` [Example 722, 4-{3-[3-(5-Ethoxypyrimidin-2-yl)benzyl]-4-oxopyridazin-1(4H)-yl}-2-fluoro-N-(2-hydroxyethyl)benzamide], for which the IC50 was less than 100 nM.

Consider `CC(C)COC(=O)Nc1cccc(Cc2nn(-c3cccc(-c4ccncc4)c3)ccc2=O)c1` [Example 730, 2-methylpropyl (3-{[4-oxo-1-(3-pyridin-4-ylphenyl)-1,4-dihydropyridazin-3-yl]methyl}phenyl) carbarnate], for which the IC50 lay within 100 to 1000 nM.

With `CC(C)COC(=O)Nc1cccc(Cc2nn(-c3cnn(C(C)C)c3)ccc2=O)c1` [Example 105, 2-methylpropyl [3-({1-[1-(1-methylethyl)-1H-pyrazol-4-yl]-4-oxo-1,4-dihydropyridazin-3-yl}methyl)phenyl]carbamate], the IC50 is less than 100 nM.

Consider `Cn1cc(-n2ccc(=O)c(Cc3cccc(-c4ncc(NC(=O)C5CCCO5)cn4)c3)n2)cn1` (racemic) [Example 462, rac-N-[2-(3-{[1-(1-methyl-1H-pyrazol-4-yl)-4-oxo-1,4-dihydro-pyridazin-3-yl}methyl}phenyl)pyrimidin-5-yl]tetra-hydrofuran-2-carboxamide], for which the IC50 is less than 100 nM.

As for `CC(C)Oc1cnc(-c2cccc(Cc3nn(-c4cnn(C)c4)ccc3=O)c2)nc1` [Example 270, 3-{3-[5-(1-methylethoxy)pyrimidin-2-yl]benzyl}-1-(1-methyl-1H-pyrazol-4-yl)pyridazin-4(1H)-one], the IC50 was less than 100 nM.

For `Cn1cc(-n2ccc(=O)c(Cc3cccc(-c4ncc(N5CCCC(C#N)C5)cn4)c3)n2)cn1` (racemic) [Example 446, rac-1-[2-(3-{[1-(1-methyl-1H-pyrazol-4-yl)-4-oxo-1,4-dihydropyridazin-3-yl]methyl}phenyl)pyrimidin-5-yl]piperidine-3-carbonitrile], the IC50 was less than 100 nM.

Consider `CN1CCN(CCOC(=O)Nc2cccc(Cc3nn(-c4cc(F)cc(F)c4)ccc3=O)c2)CC1` [Example 519, 2-(4-methylpiperazin-1-yl)ethyl (3-{[1-(3,5-difluorophenyl)-4-oxo-1,4-dihydropyridazin-3-yl]methyl}phenyl)carbamate], for which the IC50 is less than 100 nM.

Turning to `Cn1cc(-n2ccc(=O)c(Cc3cccc(NC(=O)OCc4ccccc4)c3)n2)cn1` [Example 498, benzyl(3-{[1-(1-methyl-1H-pyrazol-4-yl)-4-oxo-1,4-dihydropyridazin-3-yl]methyl}phenyl)carbamate], the IC50 is less than 100 nM.

In the case of `CCCn1cc(-n2ccc(=O)c(Cc3cccc(NC(=O)OCC(C)C)c3)n2)cn1` [Example 113, 2-methylpropyl (3-{[4-oxo-1-(1-propyl-1H-pyrazol-4-yl)-1,4-dihydropyridazin-3-yl]methyl}phenyl)carbamate], the IC50 is less than 100 nM.

As to `CCn1cc(-n2ccc(=O)c(Cc3cccc(-c4ncc(OCCn5cccn5)cn4)c3)n2)cn1` [Example 315, 1-(1-ethyl-1H-pyrazol-4-yl)-3-(3-{5-[2-(1H-pyrazol-1-yl)ethoxy]pyrimidin-2-yl}benzyl)pyridazin-4(1H)-one], the IC50 was less than 100 nM.

As for `CC(C)COC(=O)Nc1cccc(Cc2nn(-c3cnn(C4CCOCC4)c3)ccc2=O)c1` [Example 90, 2-methylpropyl [3-({4-oxo-1-[1-(tetrahydro-2H-pyran-4-yl)-1H-pyrazol-4-yl]-1,4-dihydropyridazin-3-yl}methyl)phenyl]carbamate], the IC50 fell in the range of 100 to 1000 nM.

For `CCn1cc(-n2ccc(=O)c(Cc3cccc(-c4ncc(OC(C)C)cn4)c3)n2)cn1` [Example 305, 1-(1-ethyl-1H-pyrazol-4-yl)-3-[3-(5-isopropoxypyrimidin-2-yl)benzyl]pyridazin-4(1H)-one], the IC50 is less than 100 nM.

On to `O=c1ccn(-c2ccccc2)nc1Cc1cccc(-c2ncccn2)c1` [Example 669, 1-Phenyl-3-[3-(pyrimidin-2-yl)benzyl]pyridazin-4(1H)-one], for which the IC50 lay within 100 to 1000 nM.

For `[2H]C([2H])([2H])n1cc(-n2ccc(=O)c(C(F)c3cccc(-c4ncc(OCC)cn4)c3)n2)cn1` (racemic) [Example 657, rac-3-[[3-(5-Ethoxypyrimidin-2-yl)phenyl](fluoro)methyl]-1-(1-methyl-1H-pyrazol-4-yl)pyridazin-4(1H)-one-d3], the IC50 is less than 100 nM.

Turning to `N#Cc1cccc(-n2ccc(=O)c(Cc3cccc(NC(=O)OCC4CNC4)c3)n2)c1` [Example 627, azetidin-3-ylmethyl (3-{[1-(3-cyanophenyl)-4-oxo-1,4-dihydropyridazin-3-yl]methyl}phenyl)carbamate], the IC50 is less than 100 nM.

Regarding `Cn1cc(-n2ccc(=O)c(Cc3cccc(-c4ncc(-c5cscn5)cn4)c3)n2)cn1` [Example 422, 1-(1-methyl-1H-pyrazol-4-yl)-3-{3-[5-(1,3-thiazol-4-yl)pyrimidin-2-yl]benzyl}pyridazin-4(1H)-one], the IC50 is less than 100 nM.

Take `COc1cnc(-c2cccc(Cc3nn(-c4cnn(C)c4)ccc3=O)c2)nc1` [Example 5, 3-[3-(5-Methoxypyrimidin-2-yl)benzyl]-1-(1-methyl-1H-pyrazol-4-yl)pyridazin-4(1H)-one]: the IC50 is less than 100 nM.

With `CCOC(=O)Nc1cccc(Cc2nn(-c3cc(F)cc(F)c3)ccc2=O)c1` [Example 11, ethyl (3-{[1-(3,5-difluorophenyl)-4-oxo-1,4-dihydropyridazin-3-yl]methyl}phenyl)carbamate], the IC50 was less than 100 nM.

Consider `N#Cc1cc(Cl)cc(-n2ccc(=O)c(Cc3cccc(NC(=O)OCC4CCOC4)c3)n2)c1` (racemic) [Example 141, rac-tetrahydrofuran-3-ylmethyl (3-{[1-(3-chloro-5-cyanophenyl)-4-oxo-1,4-dihydropyridazin-3-yl]methyl}phenyl)carbamate], for which the IC50 is less than 100 nM.

For `CCOC(=O)Nc1cccc(Cc2nn(-c3cnn(C)c3)ccc2=O)c1` [Example 1, Ethyl(3-{[1-(1-methyl-1H-pyrazol-4-yl)-4-oxo-1,4-dihydropyridazin-3-yl]methyl}phenyl)carbamate], the IC50 was less than 100 nM.

Take `CC(C)(O)COc1cnc(-c2cccc(Cc3nn(-c4cc(F)c(F)c(F)c4)ccc3=O)c2)nc1` [Example 362, 3-{3-[5-(2-hydroxy-2-methylpropoxy)pyrimidin-2-yl]benzyl}-1-(3,4,5-trifluorophenyl)pyridazin-4(1H)-one]: the IC50 is less than 100 nM.

As to `CCn1cc(-n2ccc(=O)c(Cc3cccc(-c4ncc(OCC5CCN(C(=O)OC(C)(C)C)CC5)cn4)c3)n2)cn1` [Example 288, tert-butyl 4-({[2-(3-{[1-(1-ethyl-1H-pyrazol-4-yl)-4-oxo-1,4-dihydropyridazin-3-yl]methyl}phenyl)pyrimidin-5-yl]oxy}methyl)piperidine-1-carboxylate], the IC50 is less than 100 nM.

`Cn1cc(-n2ccc(=O)c(Cc3cccc(-c4ncc(-c5ccco5)cn4)c3)n2)cn1` [Example 404, 3-{3-[5-(furan-2-yl)pyrimidin-2-yl]benzyl}-1-(1-methyl-1H-pyrazol-4-yl)pyridazin-4(1H)-one]: the IC50 was less than 100 nM.

For `Cn1cc(-n2ccc(=O)c(Cc3cccc(NC(=O)OCC4(F)CCOCC4)c3)n2)cn1` [Example 613, (4-fluorotetrahydro-2H-pyran-4-yl)methyl (3-{[1-(1-methyl-1H-pyrazol-4-yl)-4-oxo-1,4-dihydropyridazin-3-yl]methyl}phenyl)carbamate], the IC50 is less than 100 nM.

`Cn1cc(-n2ccc(=O)c(Cc3cccc(NC(=O)OCC(=O)O)c3)n2)cn1` [Example 629, ({[(3-{[1-(1-Methyl-1H-pyrazol-4-yl)-4-oxo-1,4-dihydropyridazin-3-yl]methyl}phenyl)amino]carbonyl}oxy)acetic acid]: the IC50 lay in the range of 1000 to 3000 nM.

As for `Cn1cc(-n2ccc(=O)c(Cc3cccc(-c4ncc(OCC(F)c5ccncc5)cn4)c3)n2)cn1` (racemic) [Example 389, rac-3-(3-{5-[2-fluoro-2-(pyridin-4-yl)ethoxy]pyrimidin-2-yl}benzyl)-1-(1-methyl-1H-pyrazol-4-yl)pyridazin-4(1H)-one], the IC50 was less than 100 nM.
